Data reported in PMC4879473 (CPT: Pharmacometrics & Systems Pharmacology, 2016).

Key:
[1] = system: P‐gp; details: reported value, P-gp-mediated efflux; cited from earlier work
[2] = system: CYP3A4; assay: Retrograde calculation of naloxegol metabolic intrinsic clearance; set-up: species or system human
[3] = Apparent permeability of naloxegol in Caco-2 cells; type: in vitro ADME; details: human
[4] = system: CYP3A; details: individual CYP enzymes and human liver microsomes in vitro; cited from earlier work
[5] = Physicochemical properties of naloxegol; details: Experimental data
[6] = cited from earlier work
[7] = cited from earlier work; remark: listed apart in the source
[8] = Naloxegol blood/plasma, microsomal and gut binding inputs; type: in vitro ADME; details: plasma
[9] = system: CYP3A/P‐gp; details: clinical DDI studies; cited from earlier work
[10] = molecular target: CYP3A (Homo sapiens, UniProt P08684); details: ciprofloxacin at 2 mM, in vitro; cited from earlier work
Sequence of CYP3A (Homo sapiens, UniProt P08684) (P08684 2-503): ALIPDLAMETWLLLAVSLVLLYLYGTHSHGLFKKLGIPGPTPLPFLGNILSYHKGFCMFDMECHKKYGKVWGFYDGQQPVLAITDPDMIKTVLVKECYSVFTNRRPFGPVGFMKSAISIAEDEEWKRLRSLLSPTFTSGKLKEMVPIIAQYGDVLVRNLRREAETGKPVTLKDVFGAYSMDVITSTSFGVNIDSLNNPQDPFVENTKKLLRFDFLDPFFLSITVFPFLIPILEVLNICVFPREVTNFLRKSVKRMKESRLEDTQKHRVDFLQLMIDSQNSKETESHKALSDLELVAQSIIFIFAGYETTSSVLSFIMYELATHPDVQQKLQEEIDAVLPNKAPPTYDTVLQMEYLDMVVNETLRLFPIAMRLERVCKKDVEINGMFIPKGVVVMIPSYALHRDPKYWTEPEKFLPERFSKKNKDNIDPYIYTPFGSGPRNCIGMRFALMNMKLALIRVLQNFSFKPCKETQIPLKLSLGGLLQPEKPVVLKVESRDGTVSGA

C[C@H]1O[C@@H](O[C@H]2[C@@H](O)C[C@H](O[C@H]3[C@@H](O)C[C@H](O[C@H]4CC[C@@]5(C)[C@H](CC[C@@H]6[C@@H]5C[C@@H](O)[C@]5(C)[C@@H](C7=CC(=O)OC7)CC[C@]65O)C4)O[C@@H]3C)O[C@@H]2C)C[C@H](O)[C@@H]1O [digoxin]
in vitro transporter‐mediated intrinsic clearance [1]: 2.5 µL/min

C=CCN1CC[C@]23c4c5ccc(O)c4O[C@H]2[C@@H](OCCOCCOCCOCCOCCOCCOCCOC)CC[C@@]3(O)[C@H]1C5 [naloxegol]
CYP3A4 CLint ([2]; Retrograde calculation): 0.267 μL/min/pmol protein | microsomal CLint ([2]; human): 36.6 µL/min/mg | Papp [3]: 4.55 ×10⁻⁶ cm/s | CYP enzymes metabolizing naloxegol [4]: metabolized primarily by CYP3A | pKa [5]: 8.45 | parent drug excreted in urine ([6]; 27 mg [14C]naloxegol oral solution, healthy male volunteers): < 6 % of the dose | dose linearity of PK ([6]; dose of up to 1,000 mg): linear or near linear | CLR ([6]; renal clearance from the renal impairment study): 4.74 L/h | CLpo ([6]; total clearance after an oral dose, observed in the ketoconazole DDI study): 150 L/h | solubility [7]: highly soluble | fraction unbound [8]: 0.958

CC(=O)N1CCN(c2ccc(OCC3COC(Cn4ccnc4)(c4ccc(Cl)cc4Cl)O3)cc2)CC1 (centres unmarked) [Ketoconazole, ketoconazole]
observed increase of naloxegol AUC [9]: 1,185%

O=C(O)c1cn(C2CC2)c2cc(N3CCNCC3)c(F)cc2c1=O [Ciprofloxacin, ciprofloxacin]
inhibition of erythromycin‐mediated CYP3A activity [10]: 65%
